Assay results reported in ChEMBL document CHEMBL1201862, “PubChem BioAssay data set” (2004).
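Exposure lasted 48 hours, with cells grown in 96-well plates and compounds tested at five concentrations. GI50 = concentration required for 50% inhibition of growth.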 Active and inactive are the calls of the source. Cut-off read from the data, not from the text of the source: active = GI50 up to about 1.1 µM and inactive = higher.

Legend:
Experiment in all cases: inhibition of tumour cell growth, NCI panel, 48 h
[1] = system: HOP-18
[2] = system: LXFL 529
[3] = system: KM-20L2
[4] = system: XF498
[5] = system: DMS-273
[6] = system: SNB-78
[7] = system: DMS-114
[8] = system: DLD-1
[9] = system: RXF 631

Measured: GI50

Cn1c2ccccc2c2ccc3c(c21)C(=O)C=CC3=O
inactive: [1] 2 µM | [2] 2.95 µM | [3] 17.1 µM | [4] 2.15 µM | [5] 12.9 µM | [6] 21.1 µM | [7] 8.26 µM | [8] 2.3 µM

O=C(O)c1ccc([N+](=O)[O-])c2c(=O)c3ccccc3[nH]c12
inactive: [1] > 100 µM | [2] > 100 µM | [9] > 100 µM | [3] > 100 µM | [5] > 100 µM | [6] > 100 µM | [7] > 100 µM | [8] > 100 µM

CN(CC(=O)O)S(=O)(=O)c1ccc(F)cc1
inactive: [1] > 100 µM | [2] > 100 µM | [9] > 100 µM | [3] > 100 µM | [4] > 100 µM | [5] > 100 µM | [8] > 100 µM

O/N=C(\c1nc2ccc(Cl)cc2nc1O)C(O)c1ccc(Cl)cc1Cl (stereo not drawn)
inactive: [2] > 100 µM | [9] > 100 µM | [3] > 100 µM | [4] > 100 µM | [5] > 100 µM | [6] > 100 µM | [7] > 100 µM | [8] > 100 µM

C/C(CC(=O)Nc1ccc(Cl)c(Cl)c1)=N/NC(=O)C[n+]1ccccc1
inactive: [1] > 100 µM | [2] 66.7 µM | [3] 76.9 µM | [4] > 100 µM | [5] 40.9 µM | [6] > 100 µM | [7] 28.4 µM

O=C(Nc1nc2ccc([N+](=O)[O-])cc2s1)C(=O)C(C1OC(=O)c2ccccc21)[N+](=O)[O-] (stereo not drawn)
inactive: [2] 85.1 µM | [9] 70.1 µM | [3] > 100 µM | [4] 27.6 µM | [6] 85.5 µM | [8] 64.6 µM

CCCCN1C(=O)C2c3[nH]c4ccccc4c3C3CCCCC3C2C1=O.CCCCN1C(=O)C2c3[nH]c4ccccc4c3[C@@H]3CCCCC3C2C1=O (stereo not drawn)
inactive: [1] 2.26 µM | [2] 13.6 µM | [9] 13.7 µM | [3] 36.6 µM | [4] 12.5 µM | [5] 10.3 µM | [6] 15 µM | [7] 12.9 µM | [8] 12.9 µM

COc1cc(C2C(C(=O)Nc3cc(F)c(F)cc3F)=C(C)NC(C)=C2C(=O)Nc2cc(F)c(F)cc2F)ccc1O
inactive: [2] 21.5 µM | [9] 15 µM | [3] 32 µM | [4] 4.66 µM | [6] 22.5 µM | [7] 14 µM | [8] 21.5 µM

Cc1ccc2c(C3Cc4ccccc4N3C(=O)/C=C\C(=O)O)c(C)[nH]c2c1 (stereo not drawn)
inactive: [2] 18.7 µM | [3] > 100 µM | [5] 41.7 µM | [6] 17.5 µM | [7] 31.4 µM | [8] 60.3 µM

CC(C(=O)[O-])S(=O)(=O)O.CCc1c2cc(OC)c(OC)cc2cc2c3cc(OC)c(OC)cc3cc[n+]12
inactive: [1] 68.1 µM | [2] 5.09 µM | [3] > 100 µM | [4] 5.64 µM | [5] 45.2 µM | [6] 33.7 µM | [7] 7.83 µM | [8] 65 µM

COc1ccc(/C=[N+](\[O-])[C@H](COCc2ccccc2)c2ccccc2)cc1
inactive: [1] 57.4 µM | [2] 77.8 µM | [9] > 100 µM | [3] > 100 µM | [4] > 100 µM | [5] > 100 µM | [6] > 100 µM | [7] > 100 µM | [8] 89.1 µM
